What was measured:
[1] = target: T1, Nitric oxide synthase, inducible (Mus musculus, UniProt P29477); test: Inhibition of iNOS in mouse ANA1 cells; type: cell-based
T1 sequence (P29477 whole entry): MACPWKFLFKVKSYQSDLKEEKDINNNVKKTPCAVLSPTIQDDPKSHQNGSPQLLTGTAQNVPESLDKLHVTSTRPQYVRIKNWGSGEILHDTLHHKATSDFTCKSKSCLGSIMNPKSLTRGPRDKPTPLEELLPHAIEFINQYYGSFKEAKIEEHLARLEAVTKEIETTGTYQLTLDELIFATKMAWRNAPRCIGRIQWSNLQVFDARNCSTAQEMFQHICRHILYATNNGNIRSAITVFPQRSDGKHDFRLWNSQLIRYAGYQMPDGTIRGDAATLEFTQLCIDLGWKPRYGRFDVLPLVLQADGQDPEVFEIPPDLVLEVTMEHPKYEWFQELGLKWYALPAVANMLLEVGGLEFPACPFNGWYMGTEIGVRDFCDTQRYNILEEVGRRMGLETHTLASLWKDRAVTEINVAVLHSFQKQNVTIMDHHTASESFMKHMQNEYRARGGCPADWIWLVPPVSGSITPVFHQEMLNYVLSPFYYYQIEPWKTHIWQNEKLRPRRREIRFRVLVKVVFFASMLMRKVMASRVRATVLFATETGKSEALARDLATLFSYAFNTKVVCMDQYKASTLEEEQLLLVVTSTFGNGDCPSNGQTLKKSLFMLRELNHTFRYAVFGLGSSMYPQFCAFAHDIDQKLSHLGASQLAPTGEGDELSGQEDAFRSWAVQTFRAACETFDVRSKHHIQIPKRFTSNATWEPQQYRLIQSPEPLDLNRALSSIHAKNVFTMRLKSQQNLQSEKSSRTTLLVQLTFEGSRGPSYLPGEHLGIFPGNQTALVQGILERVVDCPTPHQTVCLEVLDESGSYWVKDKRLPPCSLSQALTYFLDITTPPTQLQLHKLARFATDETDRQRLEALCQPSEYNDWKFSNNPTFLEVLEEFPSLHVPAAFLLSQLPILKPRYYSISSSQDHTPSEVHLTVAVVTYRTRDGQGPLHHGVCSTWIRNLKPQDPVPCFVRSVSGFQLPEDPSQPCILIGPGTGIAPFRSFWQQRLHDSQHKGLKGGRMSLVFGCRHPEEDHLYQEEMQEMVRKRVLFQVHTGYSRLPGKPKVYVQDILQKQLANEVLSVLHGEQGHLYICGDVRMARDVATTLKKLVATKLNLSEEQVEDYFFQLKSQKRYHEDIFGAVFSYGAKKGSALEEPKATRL

[2] = target: Proto-oncogene tyrosine-protein kinase Src (Homo sapiens, UniProt P12931); test: Inhibition of cSrc
HepG2 = test: Antiproliferative activity against human HepG2 cells assessed as survival at 10 uM by sulforhodamine B assay; type: functional; details: read-out: Activity
PC-3 = test: Antiproliferative activity against human PC3 cells assessed as survival at 10 uM by sulforhodamine B assay; type: functional; details: read-out: Activity
HT-29 = test: Antiproliferative activity against human HT-29 cells assessed as survival at 10 uM by sulforhodamine B assay; type: functional; details: read-out: Activity
A549 = test: Antiproliferative activity against human A549 cells assessed as survival at 10 uM by sulforhodamine B assay; type: functional; details: read-out: Activity
AGS = test: Antiproliferative activity against human AGS cells assessed as survival at 10 uM by sulforhodamine B assay; type: functional; details: read-out: Activity

Sequence of Proto-oncogene tyrosine-protein kinase Src (P12931 2-536 limits assumed): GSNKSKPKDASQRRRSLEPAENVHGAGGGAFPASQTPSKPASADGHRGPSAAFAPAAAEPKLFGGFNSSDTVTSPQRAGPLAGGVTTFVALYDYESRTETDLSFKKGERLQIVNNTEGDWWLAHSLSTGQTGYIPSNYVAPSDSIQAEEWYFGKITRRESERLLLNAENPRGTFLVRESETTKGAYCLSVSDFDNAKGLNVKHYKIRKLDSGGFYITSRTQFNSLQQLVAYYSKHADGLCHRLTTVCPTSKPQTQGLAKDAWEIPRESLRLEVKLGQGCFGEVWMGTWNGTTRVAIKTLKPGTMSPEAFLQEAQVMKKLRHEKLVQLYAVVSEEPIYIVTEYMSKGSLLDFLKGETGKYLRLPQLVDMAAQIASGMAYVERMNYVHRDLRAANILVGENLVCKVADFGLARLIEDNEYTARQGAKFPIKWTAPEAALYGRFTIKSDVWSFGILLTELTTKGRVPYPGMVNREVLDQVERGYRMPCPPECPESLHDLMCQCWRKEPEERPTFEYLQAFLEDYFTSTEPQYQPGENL

Compound | IC50 [1] [µM] | IC50 [2] [µM] | viability at 10 µM (HepG2) [%] | viability at 10 µM (PC-3) [%] | viability at 10 µM (HT-29) [%] | viability at 10 µM (A549) [%] | viability at 10 µM (AGS) [%]
Cc1cc2c(Nc3ccc4nc(N)sc4c3)c(C#N)cnc2cc1OCCCN1CCN(C)CC1 | 37.1 | 0.0506 | 40.5 | 59.5 | 31.6 | 64.1 | 68.1
Cc1cc2c(Nc3ccc4nc(N)[nH]c4c3)c(C#N)cnc2cc1OCCCN1CCCC1 | 24.8 | 0.159 |  |  |  |  | 
Cc1cc2c(Nc3ccc4nc(N)sc4c3)c(C#N)cnc2cc1OCCCN1CCNCC1 | 17.3 | 0.129 |  |  |  |  | 
Cc1cc2c(Nc3ccc4nc(N)sc4c3)c(C#N)cnc2cc1OCCCN1CCOCC1 | 31.8 | 0.0811 |  |  |  |  | 
Cc1cc2c(Nc3ccc4nc(N)sc4c3)c(C#N)cnc2cc1OCCCN1CC(C)CC(C)C1 (configuration not stated) | 10.5 | 0.267 | 42.2 | 63 | 60.6 | 53.6 | 65.5
CCN(CC)CCCOc1cc2ncc(C#N)c(Nc3ccc4nc(N)sc4c3)c2cc1C | 46.8 | 0.042 |  |  |  |  | 
COc1cc2c(Nc3ccc4nc(N)sc4c3)c(C#N)cnc2cc1OCCCN1CCNCC1 | 105 | 0.0207 |  |  |  |  | 
Cc1cc2c(Nc3ccc4nc(N)sc4c3)c(C#N)cnc2cc1OCCN1CCCCC1 | 26.7 | 0.0348 | 55.4 | 77.7 | 42.7 | 55.4 | 61
COc1cc(Nc2c(C#N)cnc3cc(OCCCN4CCN(C)CC4)c(OC)cc23)c(Cl)cc1Cl [BOSUTINIB] |  |  | 9.2 | 7.81 | 2.84 | 9.32 | 3.8
Cc1cc2c(Nc3ccc4nc(N)sc4c3)c(C#N)cnc2cc1OCCCN1CC(C)NC(C)C1 (configuration not stated) | 89.1 | 0.0366 |  |  |  |  | 
Cc1cc2c(Nc3ccc4nc(N)sc4c3)c(C#N)cnc2cc1OCCCN1CCC(C)CC1 | 12.7 | 0.0534 |  |  |  |  | 
Cc1cc2c(Nc3ccc4nc(N)[nH]c4c3)c(C#N)cnc2cc1OCCCN(C)C | 13.2 | 0.143 |  |  |  |  | 

Source: ChEMBL document CHEMBL1152265, “The design, synthesis and biological evaluation of 7-alkoxy-4-heteroarylamino-3-cyanoquinolines as dual inhibitors of c-Src and iNOS” (Bioorg Med Chem Lett, 2008)
